In US8957032B2, “Inhibition of gliadin peptides” (Alba Therapeutics Corporation, priority 2008, dated 2015):
Ends that are not written are not given here. * marks the point of attachment. FITC = O=C1OC2(c3ccc(O)cc3Oc3cc(O)ccc32)c2ccc(NC(=S)*)cc21

Assays:
[1] = tested on: CaCO2 cell monolayer; test: Permeability of a CaCO2 cell monolayer to a gliadin fragment; format: cell-based
Description: (§1) The inventors have discovered that peripheral blood mononuclear cells (PBMCs) secrete signals that increase epithelial monolayer permeability on response to stimulation with lipopolysaccharide […] and pepsin/trypsin treated gliadin (PTG). These secreted signals are present in PBMC culture supernatant, and they increase permeability of CaCO2 cell monolayers to Lucifer yellow when presented to the basolateral aspect of these cells. These permeability changes are inhibited by treatment of the cells with peptide permeability inhibitors of the invention (FIGS. 5A, 5B, 6A, 6B, 7A, 7B, 8A and 8B). The inventors have also discovered that specific peptides within the PTG mixture are capable of crossing epithelial cell monolayers in vitro, and that this peptide specific mechanism can be inhibited by peptide permeability inhibitors of the invention (FIGS. 3 and 4).

[2] = tested on: CaCO2 cells; test: Lucifer yellow permeability of CaCO2 cells exposed basolaterally to PBMC culture supernatants; format: cell-based; details: donors 00022, 00023, 00064, 00065; for Effect on baseline permeability to Lucifer yellow: control and untreated PBMC supernatant, measured after 72 hours; for Effect on permeability changes induced by LPS treated PBMC supernatant / Effect on permeability changes induced by PTG treated PBMC supernatant: Lucifer yellow measured after 72 hours
Description: After formation of tight junctions CaCO2 cells were exposed basolaterally to control supernatant (control), untreated PBMC supernatant (PBMC sup), LPS treated PBMC supernatant (PBMC-LPS) and PTG treated PBMC supernatant (PBMC-PTG). Lucifer yellow permeability was measured after 72 hours (day 3).
After formation of tight junctions CaCO2 cells were exposed basolaterally to PBMC supernatants as described above. […]
as §1

[3] = tested on: PBMCs; test: Cytokine expression in PBMCs treated with PTG or LPS (ELISA); format: cell-based, human; details: PTG 1 mg/ml or LPS 1 μg/ml
Description: PBMCs were suspended in RPMI medium supplemented with 5% heat inactivated human AB serum, and 2×10^5 cells were plated in each well of a 96 well plate. Cells were incubated at 37° C. with PTG (1 mg/ml) or LPS (1 μg/ml) in the presence or absence of test compounds being examined for the ability to suppress cytokine production. Supernatant samples were harvested following treatment, and cytokines were assayed by ELISA (R&D Systems).

[4] = tested on: intestinal tissue; details: ex vivo human tissue and mice; background section; cited from earlier work
[5] = inhibitor added apically after 48 hours (day 2)
[6] = inhibitor added apically on day 0

Substance: PYPQPQLPY (listed as Triticum sp.) [SEQ ID NO:163, gliadin peptide]
- Permeability of the monolayer to the gliadin peptide ([1]; FIG. 3, apical exposure of the monolayer to the gliadin peptide): increase in permeability

Substance: FITC-C6-PYPQPQLPY ({FITC-C6}-PYPQPQLPY) [gliadin peptide, FITC-labelled, reference compound]
- Permeability of the monolayer ([1]; FIG. 4, apical exposure of the monolayer to the gliadin peptide): increase in permeability

Substance: GGVLVQPG [SEQ ID NO:1]
- Effect on baseline permeability to Lucifer yellow [2, 5]: abolished
- Effect on baseline permeability to Lucifer yellow [2, 6]: abolished
- Effect on permeability changes induced by LPS treated PBMC supernatant [2, 5]: significantly reduced
- Effect on permeability changes induced by PTG treated PBMC supernatant [2, 5]: significantly reduced
- Effect on permeability changes induced by LPS treated PBMC supernatant [2, 6]: no significant effect
- Effect on permeability changes induced by PTG treated PBMC supernatant [2, 6]: no significant effect
- Effect on expression of IL-6, IL-8, MIP-1α and Gro-α induced by LPS and PTG [3]: not reduced
- Effect on increased expression of GM-CSF and IL-16 induced by LPS and PTG [3]: inhibited
- Effect on increase in permeability to gliadin peptide PYPQPQLPY (SEQ ID NO:163) ([1]; FIG. 3, apical exposure to gliadin peptide, apical treatment with inhibitor): blocked
- Effect on increase in permeability induced by gliadin peptide ([1]; FIG. 4, apical exposure to FITC-C6-PYPQPQLPY, 13-mer gliadin peptide SEQ ID NO:164 named in legend): blocked
- Gliadin induced reduction in intestinal Rt (resistance) [4]: inhibits
- Peak of F-actin increment induced by gliadin [4]: blocks
